Laboratory results from article PMC9030223, “MBP-11901 Inhibits Tumor Growth of Hepatocellular Carcinoma through Multitargeted Inhibition of Receptor Tyrosine Kinases” (Cancers, 2022).
Where “and” joins values, the source holds several entries; their conditions need not be identical. Equal entries are not always repeated.

Key:
[1] = system: HepG2 cells; experiment: Flow cytometry analysis of cell death (sub-G1); assay type: cell-based, human; conditions: 50 μM
Experimental: Approximately 1.5 × 10^6 HepG2 cells were suspended in […] PBS, and then […] 95% ethanol was added while vortexing. […] Incubation was continued at 37 °C for 30 min. Cellular DNA was then stained by applying […] propidium iodide (50 μg/mL) for 30 min at 25 °C. Stained cells were analyzed on a FACScan flow cytometer for relative DNA content based on increased red fluorescence.

[2] = system: HepG2 cells; experiment: Transwell migration and invasion assay; assay type: cell-based, human; conditions: HepG2, dose-dependent
Experimental: For the migration assay, HepG2 cells were seeded into the upper Transwell chamber at a density of 2 × 10^4 cells and incubated for 24 h. For the invasion assay, 100 μL of Matrigel: serum-free media (1:4) mixture was placed on the filter membrane in the upper chamber and incubated (37 °C, 4 h) to seed cells. Cells were exposed to MBP-11901 and sorafenib for 2 h. Then, the medium in the upper chamber was changed to serum-free medium, whereas the medium in the lower chamber was changed to a medium containing 10% FBS. The medium was replaced once every 2–3 d. Following 6 d incubation, the upper surfaces of the filters were scraped 5 times with cotton swabs to remove nonmigrated cells, whereas cells crossing the membrane into the lower chamber were stained with 1% (w/v) crystal violet for 30 min. Crystal violet was removed and cells were washed with tap water. For the migration assay, after drying at 25 °C, 10% acetic acid solution was added to cells, and left to react in a shaker for 30 min. Absorbance was measured at 590 nm using a microplate reader (SpectraMax i3, Molecular Devices). For the invasion assay, the number of migrated cells was counted.

[3] = system: HepG2-Luc orthotopic liver tumor; experiment: Orthotopic HCC mouse model (HepG2-Luc bioluminescence); assay type: in vivo; conditions: 82 mg/kg oral once every other day
Experimental: The orthotopic HCC mouse model was established by placing a small piece of tumor-derived HepG2-Luc cells. Mice were randomly distributed into 3 groups upon bioluminescence signal reaching 10^7. The first group served as the saline control. The second and third groups were orally administered MBP-11901 (82 mg/kg) and Nexavar® (164 mg/kg) once every other day for 4 weeks. Tumor progression/regression was recorded once weekly by quantifying the bioluminescence signals. Experimental animals were sacrificed by CO2 inhalation.

[4] = system: HepG2 xenograft tumor; experiment: HepG2 subcutaneous xenograft, dose study (19 d); conditions: for Toxic deaths/total: 19 d; for Body weight loss rate (%) / Tumor growth inhibition rate (%): day 19; for tumor weight per mouse: after 19 d, vehicle control 0.31 ± 0.089 g; for average tumor volume: end of 9 administrations, start 200 mm^3, saline approx. 1000 mm^3
[5] = system: C6; experiment: CCK-8 cell proliferation/cytotoxicity assay; assay type: cell-based; conditions: Rattus norvegicus, C6, 24 h
Experimental: (§1) Cell proliferation was detected using the Cell Counting Kit-8 (CCK-8, Cat. CK04-13; Dojindo Laboratories, Kumamoto, Japan) according to the manufacturer’s instruction. To evaluate cytotoxicity, cells were seeded in a 96-well plate (FHC, 1 × 10^4 cells/well; Caki-2, PLC/PFR.5, and MCF 10A, 1 × 10^4 cells/well; AML12, HepG2, Hep3B, and Huh-7 1.2 × 10^4 cells/well; HeLa, HEK-293, A549, and PC-3, 1.5 × 10^4 cells/well; HT-29, MCF-7, C6, and NE-4C, 2 × 10^4 cells/well). After attachment and stabilization of cells for 24 h, the medium was switched with fresh containing various concentrations (0, 1, 5, 10, 25, 50, and 100 μM) of MBP-11901, and cells were incubated for 22 h. Next, CCK-8 solution was added to each well, and cells were incubated for another 2 h. Absorbance was then measured at 450 nm using a microplate reader (SpectraMax i3, Molecular Devices, San Jose, CA, USA). The IC50 and log IC50 values were calculated using GraphPad Prism (version 5.02; GraphPad PRISM software Inc. San Diego, CA, USA). All experiments were independently performed 3 times. The graph of log IC50 values represents average values.

[6] = system: PLC/PRF5; experiment: CCK-8 cell proliferation/cytotoxicity assay; assay type: cell-based; conditions: Homo sapiens, PLC-PRF-5; PLC/PRF5, 24 h treatment
Experimental: as §1

[7] = system: HT-29; experiment: CCK-8 cell proliferation/cytotoxicity assay; assay type: cell-based; conditions: Homo sapiens, HT-29, 24 h
Experimental: as §1

[8] = system: MCF-7; experiment: CCK-8 cell proliferation/cytotoxicity assay; assay type: cell-based; conditions: Homo sapiens, MCF7; MCF-7, 24 h
Experimental: as §1

[9] = system: HeLa; experiment: CCK-8 cell proliferation/cytotoxicity assay; assay type: cell-based; conditions: Homo sapiens, 24 h
Experimental: as §1

[10] = target: T1, FGFR2 (Homo sapiens, UniProt P21802); experiment: KdELECT binding constant
T1 construct: purchased Eurofins DiscoverX Corporation
T1 sequence (P21802 22-821): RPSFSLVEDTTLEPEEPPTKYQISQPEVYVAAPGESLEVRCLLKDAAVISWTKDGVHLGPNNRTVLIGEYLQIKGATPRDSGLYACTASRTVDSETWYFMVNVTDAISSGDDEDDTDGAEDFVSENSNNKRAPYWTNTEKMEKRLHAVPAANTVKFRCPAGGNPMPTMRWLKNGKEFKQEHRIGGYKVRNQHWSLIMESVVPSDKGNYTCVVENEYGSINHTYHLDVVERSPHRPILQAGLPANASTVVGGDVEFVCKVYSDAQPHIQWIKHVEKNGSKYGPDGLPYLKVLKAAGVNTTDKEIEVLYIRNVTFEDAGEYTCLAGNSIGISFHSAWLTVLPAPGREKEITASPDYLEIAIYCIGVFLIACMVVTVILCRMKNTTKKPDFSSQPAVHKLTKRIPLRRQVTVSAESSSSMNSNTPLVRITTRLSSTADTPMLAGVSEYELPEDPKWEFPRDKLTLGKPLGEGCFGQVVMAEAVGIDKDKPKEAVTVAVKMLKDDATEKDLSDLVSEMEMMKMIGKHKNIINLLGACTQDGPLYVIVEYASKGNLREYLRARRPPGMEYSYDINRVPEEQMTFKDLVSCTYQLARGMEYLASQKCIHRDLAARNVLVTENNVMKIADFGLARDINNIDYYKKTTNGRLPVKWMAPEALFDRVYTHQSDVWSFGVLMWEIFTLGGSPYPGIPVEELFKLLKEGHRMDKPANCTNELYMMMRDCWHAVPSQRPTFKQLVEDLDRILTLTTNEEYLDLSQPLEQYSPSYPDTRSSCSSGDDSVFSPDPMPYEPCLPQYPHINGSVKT
Experimental: (§2) The profiling of MBP-11901 against a panel of 468 kinases was performed by DiscoverX using KINOMEscan technology, an active-site-dependent competition-binding assay (Eurofins DiscoverX Corporation, San Diego, CA, USA). Binding constants (Kd) were calculated by DiscoverX using KdELECT technology, a widely used assay for comparing selectivity across the kinome. The DiscoverX platform reports the thermodynamic Kd to facilitate direct comparison of inhibitor affinity across the kinome, independent of ATP concentration.

[11] = target: T2, KIT (Homo sapiens, UniProt P10721); experiment: KdELECT binding constant; conditions: mean ± S.D. (n = 2)
T2 construct: purchased Eurofins DiscoverX Corporation
T2 sequence (P10721 26-976): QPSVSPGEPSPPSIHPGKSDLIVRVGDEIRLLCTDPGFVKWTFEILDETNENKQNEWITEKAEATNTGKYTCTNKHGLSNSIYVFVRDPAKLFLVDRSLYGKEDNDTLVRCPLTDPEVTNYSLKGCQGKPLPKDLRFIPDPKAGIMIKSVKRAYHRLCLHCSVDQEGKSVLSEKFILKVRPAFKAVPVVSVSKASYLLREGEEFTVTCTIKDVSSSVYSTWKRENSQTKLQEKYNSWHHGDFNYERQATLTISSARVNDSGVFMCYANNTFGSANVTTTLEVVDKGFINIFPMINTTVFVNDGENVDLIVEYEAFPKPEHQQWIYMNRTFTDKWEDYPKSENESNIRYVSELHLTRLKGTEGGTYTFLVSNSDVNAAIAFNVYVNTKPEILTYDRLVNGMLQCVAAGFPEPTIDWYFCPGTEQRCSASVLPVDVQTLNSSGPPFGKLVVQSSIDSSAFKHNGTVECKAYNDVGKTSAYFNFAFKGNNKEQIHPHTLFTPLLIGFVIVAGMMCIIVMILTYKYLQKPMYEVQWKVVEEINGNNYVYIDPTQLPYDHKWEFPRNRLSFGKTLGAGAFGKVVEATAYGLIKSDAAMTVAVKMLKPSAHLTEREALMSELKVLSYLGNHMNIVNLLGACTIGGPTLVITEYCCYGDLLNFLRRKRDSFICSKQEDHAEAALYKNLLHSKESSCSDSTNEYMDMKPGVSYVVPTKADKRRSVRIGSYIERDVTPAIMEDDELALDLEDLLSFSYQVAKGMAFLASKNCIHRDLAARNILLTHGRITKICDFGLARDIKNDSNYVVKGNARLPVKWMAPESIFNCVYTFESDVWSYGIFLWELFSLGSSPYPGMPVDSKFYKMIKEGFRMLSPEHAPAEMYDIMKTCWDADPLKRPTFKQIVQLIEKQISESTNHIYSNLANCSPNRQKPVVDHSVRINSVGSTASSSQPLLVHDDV
Experimental: as §2

[12] = target: T3, EGFR (Homo sapiens, UniProt P00533); experiment: KdELECT binding constant
T3 construct: purchased Eurofins DiscoverX Corporation
T3 sequence (P00533 25-1210): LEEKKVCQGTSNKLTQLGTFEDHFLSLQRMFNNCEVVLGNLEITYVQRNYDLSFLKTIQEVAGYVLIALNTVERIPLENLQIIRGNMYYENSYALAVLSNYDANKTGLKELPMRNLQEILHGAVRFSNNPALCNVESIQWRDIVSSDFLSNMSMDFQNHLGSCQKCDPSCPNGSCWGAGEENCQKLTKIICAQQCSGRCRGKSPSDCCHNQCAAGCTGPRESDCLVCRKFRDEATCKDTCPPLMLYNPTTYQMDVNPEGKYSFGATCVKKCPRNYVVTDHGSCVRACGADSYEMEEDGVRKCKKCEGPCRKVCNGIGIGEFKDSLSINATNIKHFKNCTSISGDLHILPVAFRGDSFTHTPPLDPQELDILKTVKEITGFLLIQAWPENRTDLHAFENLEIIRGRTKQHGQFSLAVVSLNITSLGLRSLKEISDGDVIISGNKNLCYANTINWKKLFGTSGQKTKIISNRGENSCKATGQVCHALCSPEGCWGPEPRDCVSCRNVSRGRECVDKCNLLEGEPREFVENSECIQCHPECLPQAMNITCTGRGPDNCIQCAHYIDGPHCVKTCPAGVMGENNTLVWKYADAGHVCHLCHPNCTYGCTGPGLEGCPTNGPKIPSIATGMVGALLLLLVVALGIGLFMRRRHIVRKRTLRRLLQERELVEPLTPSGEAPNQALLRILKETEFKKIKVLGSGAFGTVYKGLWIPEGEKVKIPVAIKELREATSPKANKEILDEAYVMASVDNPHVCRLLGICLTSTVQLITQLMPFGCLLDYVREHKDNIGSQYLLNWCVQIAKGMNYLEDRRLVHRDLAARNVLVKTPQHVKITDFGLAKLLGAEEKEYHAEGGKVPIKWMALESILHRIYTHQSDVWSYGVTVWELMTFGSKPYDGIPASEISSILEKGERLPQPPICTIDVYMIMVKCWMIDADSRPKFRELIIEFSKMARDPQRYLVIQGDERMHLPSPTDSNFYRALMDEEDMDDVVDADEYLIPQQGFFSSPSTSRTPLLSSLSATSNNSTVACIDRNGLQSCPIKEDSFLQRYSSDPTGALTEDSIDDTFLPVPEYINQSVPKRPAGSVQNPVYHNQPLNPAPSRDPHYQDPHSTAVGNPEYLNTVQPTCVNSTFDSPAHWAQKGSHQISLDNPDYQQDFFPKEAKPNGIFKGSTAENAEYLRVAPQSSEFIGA
Experimental: as §2

[13] = target: T4, FGFR1 (Homo sapiens, UniProt P11362); experiment: KdELECT binding constant
T4 construct: purchased Eurofins DiscoverX Corporation
T4 sequence (P11362 22-822): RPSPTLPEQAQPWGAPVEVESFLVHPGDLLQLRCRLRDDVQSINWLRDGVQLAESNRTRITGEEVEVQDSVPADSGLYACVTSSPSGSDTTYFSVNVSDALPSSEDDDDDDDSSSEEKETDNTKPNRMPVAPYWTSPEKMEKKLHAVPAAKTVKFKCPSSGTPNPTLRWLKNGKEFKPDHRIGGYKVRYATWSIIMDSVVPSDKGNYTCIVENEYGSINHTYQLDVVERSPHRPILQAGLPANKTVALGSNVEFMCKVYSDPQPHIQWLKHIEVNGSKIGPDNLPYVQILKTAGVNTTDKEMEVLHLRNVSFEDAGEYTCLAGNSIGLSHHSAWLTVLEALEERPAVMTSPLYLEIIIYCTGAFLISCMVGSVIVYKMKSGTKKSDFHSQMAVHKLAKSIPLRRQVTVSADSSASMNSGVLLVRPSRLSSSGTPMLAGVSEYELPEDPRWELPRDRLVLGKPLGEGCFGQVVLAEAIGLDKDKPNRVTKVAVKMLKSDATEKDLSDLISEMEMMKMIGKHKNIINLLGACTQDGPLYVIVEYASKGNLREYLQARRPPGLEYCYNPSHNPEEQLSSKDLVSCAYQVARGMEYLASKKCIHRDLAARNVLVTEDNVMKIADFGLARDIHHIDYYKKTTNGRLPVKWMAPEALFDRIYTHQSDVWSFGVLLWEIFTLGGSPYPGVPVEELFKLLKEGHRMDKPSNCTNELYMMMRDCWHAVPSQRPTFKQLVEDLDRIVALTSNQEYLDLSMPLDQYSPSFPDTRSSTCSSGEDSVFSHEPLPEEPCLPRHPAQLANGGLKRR
Experimental: as §2

[14] = tumors, compared with vehicle control

NCC(N)C(=O)Nc1ccc(-c2nc3ccccc3s2)cc1 (centres unmarked) [MBP-11901]
SubG1 ([1]; 8 h): 10.26% | SubG1 ([1]; 16 h): 17.39% | SubG1 ([1]; 24 h): 34.68% | migration and invasion of tumor cells [2]: highly inhibited | level of GPT ([3]; 4 weeks): within the normal range | Ratio of average luminescence intensity to that of the saline group before administration ([3]; 0 w (immediately before administration)): 0.77 ± 0.8 fold | Ratio of average luminescence intensity to that of the saline group before administration ([3]; 1 w): 2.24 ± 2.9 fold | Ratio of average luminescence intensity to that of the saline group before administration ([3]; 2 w): 0.83 ± 1.8 fold | Ratio of average luminescence intensity to that of the saline group before administration ([3]; 3 w): 0.03 ± 0.1 fold | Ratio of average luminescence intensity to that of the saline group before administration ([3]; 4 w): 0.02 ± 0.0 fold | Toxic deaths/total ([4]; 40 mg/kg oral once every 2 d): 0/8 | Body weight loss rate (%) ([4]; 40 mg/kg oral once every 2 d): 2.00 ± 2.47 % | Tumor growth inhibition rate (%) ([4]; 40 mg/kg oral once every 2 d): 61.41 ± 0.45% | tumor weight per mouse ([4]; 40 mg/kg): 0.082 ± 0.063 g | average tumor volume ([4]; 40 mg/kg): approximately 350 mm^3 | animals in which the tumor completely disappeared ([4]; 60 mg/kg group): 3 out of 8 | Toxic deaths/total ([4]; 60 mg/kg oral once every 2 d): 0/8 | Body weight loss rate (%) ([4]; 60 mg/kg oral once every 2 d): 1.50 ± 1.97 % | Tumor growth inhibition rate (%) ([4]; 60 mg/kg oral once every 2 d): 85.26 ± 0.36% | tumor weight per mouse ([4]; 60 mg/kg): 0.025 ± 0.035 g | average tumor volume ([4]; 60 mg/kg): ~150 mm^3 | animals in which the tumor completely disappeared ([4]; 82 mg/kg group): 4 out of 8 | Toxic deaths/total ([4]; 82 mg/kg oral once every 2 d): 0/8 | Body weight loss rate (%) ([4]; 82 mg/kg oral once every 2 d): 1.78 ± 4.40 % | Tumor growth inhibition rate (%) ([4]; 82 mg/kg oral once every 2 d): 92.54 ± 0.02% and 92.54 ± 0.0 % | tumor weight per mouse ([4]; 82 mg/kg): 0.011 ± 0.009 g | average tumor volume ([4]; 82 mg/kg): ~70 mm^3 | apoptosis in tumors (cleaved caspase-3) [4, 14]: high level of apoptosis | proliferation of tumor cells (Ki-67) [4, 14]: significant reduction | IC50 [5]: 77.8 ± 9.73 µM | IC50 [6]: 18.6 ± 0.81 µM | IC50 [7]: 29.86 ± 0.27 µM | IC50 [8]: 65.9 ± 12.3 µM | IC50 [9]: 41.9 ± 3.38 µM | Kd [10]: > 30 µM | Kd [11]: 3.85 ± 1.15 µM | Kd [12]: > 30 µM | Kd [13]: > 30 µM
